In patent US20050009903A1, “CB2-selective cannabinoid analogues” (priority 2003, published 2005):
Values joined by “and” are separate entries in the source; they are usually repeats but may differ in a detail not shown here. Equal values may be shown once. Read-outs that look alike come from different tables or passages of the source.

Experiments:
CB2 receptor = CB2 receptor (Homo sapiens, UniProt P34972); assay: CB2 assay: displacement of [3H]CP-55,940 from cloned human CB2 receptor preparation (transfected HEK 293 cells); type: binding; set-up: expressed in transfected cells; conditions: for Ratio CB17CB2 / Ratio CB1/CB2: ratio of Ki values
Chain of CB2 receptor (P34972 whole entry): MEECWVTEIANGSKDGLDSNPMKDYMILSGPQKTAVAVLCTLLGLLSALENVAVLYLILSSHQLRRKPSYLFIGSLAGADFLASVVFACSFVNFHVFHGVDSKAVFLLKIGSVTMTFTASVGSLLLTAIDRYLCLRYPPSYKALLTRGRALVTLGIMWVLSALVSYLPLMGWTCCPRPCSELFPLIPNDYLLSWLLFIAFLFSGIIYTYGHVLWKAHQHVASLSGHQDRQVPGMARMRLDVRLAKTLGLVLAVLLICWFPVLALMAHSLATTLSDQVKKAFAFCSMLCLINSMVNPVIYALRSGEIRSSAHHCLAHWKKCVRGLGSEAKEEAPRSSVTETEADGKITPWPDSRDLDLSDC

CB1 receptor = molecular target: T1, CB1 receptor (Rattus norvegicus, UniProt P20272); assay: CB1 assay: displacement of [3H]CP-55,940 from rat brain membrane preparation; type: binding
T1 construct: from tissue; host or cells: rat whole brain, P2 membranes
T1 sequence (P20272 whole entry): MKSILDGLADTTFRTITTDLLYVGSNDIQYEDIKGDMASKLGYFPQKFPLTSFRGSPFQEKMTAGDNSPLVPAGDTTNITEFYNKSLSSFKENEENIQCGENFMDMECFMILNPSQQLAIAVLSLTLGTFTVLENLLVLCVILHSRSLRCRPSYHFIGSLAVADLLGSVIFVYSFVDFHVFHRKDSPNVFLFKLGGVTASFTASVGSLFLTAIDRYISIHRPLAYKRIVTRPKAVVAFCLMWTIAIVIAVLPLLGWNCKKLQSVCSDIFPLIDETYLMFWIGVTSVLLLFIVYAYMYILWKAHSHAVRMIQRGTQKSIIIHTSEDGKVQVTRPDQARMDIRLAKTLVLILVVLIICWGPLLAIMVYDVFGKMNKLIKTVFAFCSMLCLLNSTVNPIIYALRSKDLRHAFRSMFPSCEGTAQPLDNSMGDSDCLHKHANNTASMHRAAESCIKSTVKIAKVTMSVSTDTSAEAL

[1] = cloned human CB2, read-out: Ki at CB2 receptor
[2] = rat brain membranes, read-out: Ki at CB1 receptor
[3] = Ki CB2, Table 1, mean ± SEM, cloned human CB2, [3H]CP 55,940
[4] = Ki at CB2 receptor, cloned human CB2
[5] = Table 1, mean ± SEM, cloned human CB2, [3H]CP 55,940, read-out: Ki CB2
[6] = Table 1, mean ± SEM, rat brain membranes, [3H]CP 55,940, read-out: Ki CB1
[7] = Table 2, mean ± SEM, 3-(alkyl-1-naphthoyl)indoles, read-out: Ki CB2
[8] = Table 2, mean ± SEM, 3-(alkyl-1-naphthoyl)indoles, read-out: Ki CB1

Row | SMILES | Ratio CB17CB2 (CB2 receptor; Table 2) | Ki (CB2 receptor; [1]) | Ki (CB1 receptor; [2]) | other results
1 | CCCn1c(C)c(C(=O)c2ccc(CC)c3ccccc23)c2ccccc21 [JWH-211, 2-Methyl-1-propyl-3-(4-ethyl-1-naphthoyl)indole] | 5.8 | 12 ± 0.8 nM | 70 ± 0.8 nM | 
2 | CCCCC(C)(C)c1cc(OC)c2c(c1)OC(C)(C)[C@@H]1CC=C(CO)C[C@@H]21 [Compound 11d, 1-Methoxy-3-(1′,1′-dimethylpentyl)-11-hydroxy-Δ^8-THC] |  |  |  | Ki (CB2 receptor; [3]): 4.4 ± 0.3 nM; Ki (CB2 receptor; [4]): 40 ± 6 nM; Ratio CB1/CB2 (CB2 receptor; Table 1): 9.1; Ki (CB1 receptor): 40 ± 6 nM
3 | CCCn1cc(C(=O)c2cccc3cc(OC)ccc23)c2ccccc21 [JWH-163, 1-Propyl-3-(6-methoxy-1-naphthoyl)indole] |  | 138 ± 12 nM |  | Ki (CB1 receptor; Table 3, mean ± SEM, 3-(alkoxy-1-naphthoyl)indoles, the same values as Ki in nM, read-out: CB1 (receptor affinity)): 2360 ± 215 nM
4 | CCC(C)(C)c1cc(OC)c2c(c1)OC(C)(C)C1CC=C(C)CC21 (centres unmarked) [Compound 6b, 1-Methoxy-3-(1′,1′-dimethylpropyl)-Δ^8-THC] |  |  |  | Ki (CB2 receptor; [5]): 1400 ± 66 nM; Ratio CB1/CB2 (CB2 receptor; Table 1): 7.1; Ki (CB1 receptor; [6]): > 10000 nM
5 | CCCCCC(C)(C)c1ccc2c(c1)OC(C)(C)C1CC=C(CO)CC21 (centres unmarked) [Compound 9e, 1-Deoxy-3-(1′,1′-dimethylhexyl)-11-hydroxy-Δ^8-THC] |  | 0.52 nM | 1.8 ± 0.3 nM | Ratio CB1/CB2 (CB2 receptor; Table 1): 3.5
6 | CCCn1cc(C(=O)c2ccc(CC)c3ccccc23)c2ccccc21 [JWH-212, 1-Propyl-3-(4-ethyl-1-naphthoyl)indole] | 3.3 |  |  | Ki (CB2 receptor; [7]): 10 ± 1.2 nM; Ki (CB1 receptor; [8]): 33 ± 0.9 nM
7 | CCCn1c(C)c(C(=O)c2ccc(OCC)c3ccccc23)c2ccccc21 [JWH-261, 2-Methyl-1-propyl-3-(4-ethoxy-1-naphthoyl)indole] |  | 221 ± 14 nM | 767 ± 105 nM | 
8 | CCCCCn1c(C)c(C(=O)c2cccc3ccc(OC)cc23)c2ccccc21 [JWH-159, 2-Methyl-1-pentyl-3-(7-methoxy-1-naphthoyl)indole] |  | 10.4 ± 1.4 nM | 45 ± 1 nM | 
9 | CCCn1c(C)c(C(=O)c2cccc3ccc(CC)cc23)c2ccccc21 [JWH-236, 2-Methyl-1-propyl-3-(7-ethyl-1-naphthoyl) indole] | 5.6 | 240 ± 63 nM | 1350 ± 204 nM | 
10 | CCCCCn1c(C)c(C(=O)c2cccc3ccc(C)cc23)c2ccccc21 [JWH-048, 2-Methyl-1-pentyl-3-(7-methyl-1-naphthoyl) indole] | 22 |  |  | 
11 | CCCCCn1c(C)c(C(=O)c2ccc(OCC)c3ccccc23)c2ccccc21 [JWH-260, 2-Methyl-1-pentyl-3-(4-ethoxy-1-naphthoyl)indole] |  | 25 ± 1.9 nM | 29 ± 0.4 nM | 
12 | CCCn1cc(C(=O)c2cccc3ccccc23)c2ccccc21 [JWH-072] | 6.2 |  |  | 
13 | CCCCc1ccc(C(=O)c2c(C)n(CCC)c3ccccc23)c2ccccc12 [JWH-241, 2-Methyl-1-propyl-3-(4-butyl-1-naphthoyl)indole] | 3.0 | 49 ± 7 nM | 147 ± 20 nM | 
14 | CCCn1cc(C(=O)c2ccc(OCC)c3ccccc23)c2ccccc21 [JWH-259, 1-Propyl-3-(4-ethoxy-1-naphthoyl)indole] |  | 74 ± 7 nM | 220 ± 29 nM | 
15 | CCCn1cc(C(=O)c2cccc3ccc(CC)cc23)c2ccccc21 [JWH-235, 1-Propyl-3-(7-ethyl-1-naphthoyl)indole] | 2.7 | 123 ± 34 nM | 338 ± 34 nM | 
16 | CCCCCn1cc(C(=O)c2cccc3ccccc23)c2ccccc21 [JWH-018] | 3.3 |  |  | 
17 | CCCCC(C)(C)c1cc(OC)c2c(c1)OC(C)(C)[C@@H]1CC=C(C)C[C@@H]21 [Compound 6d, 1-Methoxy-3-(1′,1′-dimethylpentyl)-Δ^8-THC] |  |  |  | Ki (CB2 receptor; [3]): 43 ± 3 nM; Ratio CB1/CB2 (CB2 receptor; Table 1): 93; Ki (CB1 receptor): 4000 ± 282 nM

Row | SMILES | Ratio CB17CB2 (CB2 receptor; Table 2) | Ki (CB2 receptor; [1]) | Ki (CB1 receptor; [2]) | other results
18 | CCCCCn1cc(C(=O)c2cccc3cc(OC)ccc23)c2ccccc21 [JWH-166, 1-Pentyl-3-(6-methoxy-1-naphthoyl)indole] |  | 1.9 ± 0.1 nM | 44 ± 10 nM | 
19 | CCCCC(C)(C)c1ccc2c(c1)OC(C)(C)C1CC=C(CO)CC21 (centres unmarked) [Compound 9d, 1-Deoxy-3-(1′,1′-dimethylpentyl)-11-hydroxy-Δ^8-THC] |  |  |  | Ki (CB2 receptor; [5]): 1.6 ± 0.03 nM; Ratio CB1/CB2 (CB2 receptor; Table 1): 5.5; Ki (CB1 receptor; [6]): 8.8 ± 1.4 nM
20 | CCCCCn1cc(C(=O)c2ccc(CCCC)c3ccccc23)c2ccccc21 [JWH-240, 1-Pentyl-3-(4-butyl-1-naphthoyl)indole] | 1.9 | 7.2 ± 13 nM | 14 ± 1 nM | 
21 | CCCn1cc(C(=O)c2cccc3ccc(OC)cc23)c2ccccc21 [JWH-165, 1-Propyl-3-(7-methoxy-1-naphthoyl)indole] |  | 71 ± 8 nM | 204 ± 26 nM | 
22 | CCCC(C)(C)c1cc(OC)c2c(c1)OC(C)(C)[C@@H]1CC=C(C)C[C@@H]21 [Compound 6c, 3-(1′,1′-Dimethylbutyl)-1-methoxy-Δ^8-THC] |  |  |  | Ki (CB2 receptor; [3]): 325 ± 70 nM; Ki (CB2 receptor; [4]): 1870 ± 867 nM; Ratio CB1/CB2 (CB2 receptor; Table 1): 31; Ki (CB1 receptor): > 10000 nM
23 | CCCCCCC(C)(C)c1cc(OC)c2c(c1)OC(C)(C)[C@@H]1CC=C(CO)C[C@@H]21 [Compound 11f, 11-hydroxy-3-(1′,1′-dimethylheptyl)-1-methoxy-Δ^8-THC] |  |  |  | Ki (CB2 receptor; [4]): 1 nM and 1.2 nM; Ratio CB1/CB2 (CB2 receptor; Table 1): 14; Ki (CB1 receptor): 14 ± 3 nM
24 | CCCCCC(C)(C)c1cc(OC)c2c(c1)OC(C)(C)C1CC=C(CO)CC21 (centres unmarked) [Compound 11e, 1-Methoxy-3-(1′,1′-dimethylhexyl)-11-hydroxy-Δ^8-THC] |  | 1.4 nM and 1.2 nM | 15 nM and 14 nM | Ratio CB1/CB2 (CB2 receptor; Table 1): 11
25 | COc1cc(C(C)(C)C)cc2c1C1CC(C)=CCC1C(C)(C)O2 (centres unmarked) [Compound 6a, 1-Methoxy-3-(1′,1′-dimethylethyl)-Δ^8-THC] |  | 1870 ± 867 nM |  | Ratio CB1/CB2 (CB2 receptor; Table 1): 5.4; Ki (CB1 receptor; [6]): > 10000 nM
26 | CCCc1ccc(C(=O)c2c(C)n(CCC)c3ccccc23)c2ccccc12 [JWH-189, 2-Methyl-1-propyl-3-(4-propyl-1-naphthoyl)indole] | 4.3 |  |  | Ki (CB2 receptor; [7]): 12 ± 0.8 nM; Ki (CB1 receptor; [8]): 52 ± 2 nM
27 | CCC(C)(C)c1cc(OC)c2c(c1)OC(C)(C)C1CC=C(CO)CC21 (centres unmarked) [Compound 11b, 1-Methoxy-3-(1′,1′-dimethylpropyl)-11-hydroxy-Δ^8-THC] |  |  |  | Ki (CB2 receptor; [5]): 85 ± 21 nM; Ratio CB1/CB2 (CB2 receptor; Table 1): 12; Ki (CB1 receptor; [6]): 1010 ± 117 nM
28 | CCCCCn1cc(C(=O)c2ccc(C)c3ccccc23)c2ccccc21 [JWH-122] | 0.6 |  |  | Ki (CB2 receptor; [7]): 1.2 ± 1.2 nM
29 | CCCCCn1c(C)c(C(=O)c2ccc(CCCC)c3ccccc23)c2ccccc21 [JWH-242, 2-Methyl-1-pentyl-3-(4-butyl-1-naphthoyl)indole] | 6.5 | 6.5 ± 0.3 nM | 42 ± 9 nM | 
30 | CCCn1c(C)c(C(=O)c2ccc(C)c3ccccc23)c2ccccc21 [JWH-148, 2-Methyl-1-propyl-3-(4-methyl-1-naphthoyl)indole] | 8.8 | 14 ± 1 nM | 123 ± 8 nM | 
31 | CCCCCn1c(C)c(C(=O)c2ccc(CCC)c3ccccc23)c2ccccc21 [JWH-181, 2-Methyl-1-pentyl-3-(4-propyl-1-naphthoyl)indole] | 2.1 | 0.62 ± 0.04 nM |  | Ki (CB1 receptor; [8]): 1.3 ± 0.1 nM
32 | CC(C)(C)c1ccc2c(c1)OC(C)(C)C1CC=C(CO)CC21 (centres unmarked) [Compound 9a, 1-Deoxy-3-(1′,1′-dimethylethyl)-11-hydroxy-Δ^8-THC] |  | 18.1 ± 1.8 nM | 270 ± 58 nM | 
33 | CCCn1c(C)c(C(=O)c2cccc3ccc(C)cc23)c2ccccc21 [JWH-046, 2-methyl-1-propyl-3-(7-methyl-1-naphthoyl)indole] | 21 |  |  | 
34 | CCCCCn1c(C)c(C(=O)c2ccc(C)c3ccccc23)c2ccccc21 [JWH-149] | 6.8 |  |  | Ki (CB2 receptor; [7]): 0.73 ± 0.03 nM
